Patent US12558349B2, “Methods of treating infections in overweight and obese patients using antibiotics” (MELINTA SUBSIDIARY CORP., priority 2013, dated 2026)
Where two headings read alike, the source gives them in different places.

Key:
[1] = tested on: Acute Bacterial Skin and Skin Structure Infections (ABSSSI); experiment: Phase 2b clinical trial: reduction in the size of the lesion at 48 to 72 hours; type: in vivo, human
Confirmed MRSA = experiment: Phase 2b clinical trial: Investigators' Global Assessment of Cure in Patients with Confirmed MRSA; type: in vivo, human; settings: comparators with and without aztreonam; for Response Rate, Investigators' Global Assessment of Cure in Patients with Confirmed MRSA: MITT; for Percent Clinical Cure (MITT): patients with confirmed MRSA
Source text: (§1) The term “cure” or “Investigators' Global Assessment of Cure” as used herein refers to complete resolution of all signs and symptoms at the follow-up visit.

[2] = Phase 2b clinical trial: adverse events; settings: for Overall adverse event rates: across the Phase 2b study; for Specific limiting toxicity: human, in vivo
[3] = tested on: Acute Bacterial Skin and Skin Structure Infections (ABSSSI); experiment: Phase 2b clinical trial in ABSSSI: Investigators' Global Assessment of Cure; type: in vivo, human; settings: for Response Rate, Investigators' Global Assessment of Cure: ITT; for Response Rate, Investigators' Global Assessment of Cure / Percent Clinical Cure (ITT): delafloxacin 300 mg BID, Zyvox 600 mg BID, vancomycin 1,000 to 2,000 mg BID, comparators with and without aztreonam; for Percent Clinical Cure (ITT): Investigators' Global Assessment of Cure; for Clinical activity with increased patient weight: Phase 2b data by weight/BMI
Source text: as §1

[4] = tested on: Acute Bacterial Skin and Skin Structure Infections (ABSSSI); experiment: Phase 2b clinical trial: Objective Endpoint at 48 to 72 hours (cessation of lesion spread and absence or resolution of fever); type: in vivo, human; settings: comparators with and without aztreonam; for Percent Cessation of Spread of Erythema and Absence of Fever at 48 to 72 Hours: secondary endpoint
[5] = human, in vivo

Row | Compound | Response Rate, Investigators' Global Assessment of Cure in Patients with Confirmed MRSA (Confirmed MRSA) | Percent Clinical Cure (MITT) (Confirmed MRSA) [%] | Leading adverse event ([2]; Phase 2b study) | Most common specific adverse event ([2]; Phase 2b study) | Overall adverse event rates [2] [%] | Specific limiting toxicity [2] | Response Rate, Investigators' Global Assessment of Cure [3] | Percent Clinical Cure (ITT) [3] [%] | Clinical activity with increased patient weight [3] | Response Rate, Objective Endpoint at 48 to 72 hours [4] | Percent Cessation of Spread of Erythema and Absence of Fever at 48 to 72 Hours [4] [%] | other results
1 | Nc1nc(-n2cc(C(=O)O)c(=O)c3cc(F)c(N4CC(O)C4)c(Cl)c32)c(F)cc1F [Delafloxacin, 1-(6-amino-3,5-difluoro-2-pyridinyl)-8-chloro-6-fluoro-1,4-dihydro-7-(3-hydroxy-1-azetidinyl)-4-oxo-3-quinolinecarboxylic acid] | 19/29 | 65.56 | gastrointestinal, or GI, disorder | mild to moderate diarrhea | 74 | no specific limiting toxicity | 57/81 | 70.4 | maintained | 61/78 | 78.2 | Percentage of patients with a 30% or greater reduction in the size of the lesion, versus comparators [1]: greater percentage of patients; Evidence for toxicities common in the fluoroquinolone class (phototoxicity, elevated liver enzymes, dysglycemia, QT prolongation) ([2]; Phase 2b study): did not demonstrate evidence; Efficacy compared to vancomycin, primary endpoint Investigators' Global Assessment of Cure ([3]; 95% Confidence Interval −30.3%, −2.3%, p=0.031): statistically significant efficacy advantage; Percent Cessation of Spread of Erythema and Absence of Fever at 48 to 72 Hours ([4]; listed as delafloxacin): approximately 78%
2 | CN[C@H](CC(C)C)C(=O)N[C@H]1C(=O)N[C@@H](CC(N)=O)C(=O)N[C@H]2C(=O)N[C@H]3C(=O)N[C@H](C(=O)N[C@H](C(=O)O)c4cc(O)cc(O)c4-c4cc3ccc4O)[C@H](O)c3ccc(c(Cl)c3)Oc3cc2cc(c3O[C@@H]2O[C@H](CO)[C@@H](O)[C@H](O)[C@H]2O[C@H]2C[C@](C)(N)[C@H](O)[C@H](C)O2)Oc2ccc(cc2Cl)[C@H]1O [Vancomycin] | 21/32 | 65.6 | disorders of the skin | pruritus | 65 |  | 53/98 | 54.1 | decline | 69/95 | 72.6 | Specific limiting toxicity [5]: kidney; Patients who experienced renal issues ([2]; Phase 2b study arm): three; Renal failures ([2]; Phase 2b study arm, among the renal issues): two; Percent Cessation of Spread of Erythema and Absence of Fever at 48 to 72 Hours ([4]; listed as vancomycin): ~73%
3 | CC(=O)NC[C@H]1CN(c2ccc(N3CCOCC3)c(F)c2)C(=O)O1 [Zyvox, N-[[(5S)-3-[3-fluoro-4-(4-morpholinyl)phenyl]-2-oxo-5-oxazolidinyl]methyl]acetamide] | 21/34 | 61.8 | GI disorder | nausea | 72 | bone marrow | 50/77 | 84.9 | decline | 56/75 | 74.7 | Subjects who experienced thrombocytopenia ([2]; Phase 2b study arm): two; Percent Cessation of Spread of Erythema and Absence of Fever at 48 to 72 Hours ([4]; listed as linezolid): ~75%
